One assay deals with T1, Human GSDMD (Homo sapiens, UniProt P57764).
T1 construct: His6-MBP (N, cleaved yes); made in house; host or cells: E. coli BL21 (DE3) for GSDMD; Sf9 for caspase-11
T1 sequence (P57764 1-484): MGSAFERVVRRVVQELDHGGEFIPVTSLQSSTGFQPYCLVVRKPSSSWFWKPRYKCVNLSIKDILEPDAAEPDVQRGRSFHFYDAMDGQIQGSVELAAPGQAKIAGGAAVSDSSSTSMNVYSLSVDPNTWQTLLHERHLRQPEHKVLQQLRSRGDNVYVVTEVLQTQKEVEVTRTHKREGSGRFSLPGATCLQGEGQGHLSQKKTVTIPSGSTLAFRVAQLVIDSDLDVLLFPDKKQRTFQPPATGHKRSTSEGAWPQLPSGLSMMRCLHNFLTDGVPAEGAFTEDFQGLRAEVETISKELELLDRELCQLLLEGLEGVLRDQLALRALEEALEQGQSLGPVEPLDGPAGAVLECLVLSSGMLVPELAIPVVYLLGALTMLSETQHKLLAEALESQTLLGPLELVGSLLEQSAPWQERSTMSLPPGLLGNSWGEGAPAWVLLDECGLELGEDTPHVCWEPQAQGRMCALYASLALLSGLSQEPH
The experiment in a line: Liposome leakage assay (Tb3+/DPA), GSDMD plus caspase-11. It is filed as biochemical. As for the experimental part:
The lipid mixture was suspended in 1 mL Buffer A (20 mM HEPES, 150 mM NaCl, 50 mM sodium citrate, and 15 mM TbCl3) for 3 min. The suspension was pushed through 100 nm Whatman® Nuclepore™ Track-Etched Membrane 30 times to obtain homogeneous liposomes. The filtered suspension was purified by size exclusion column (Superose 6, 10/300 GL) in Buffer B (20 mM HEPES, 150 mM NaCl) to remove TbCl3 outside liposomes. […] The liposomes are diluted to 50 μM with Buffer C (20 mM HEPES, 150 mM NaCl and 50 μM DPA) for use in high-throughput screening.

For a further assay, the system named is THP-1 cells. Kind of assay: Canonical inflammasome pyroptosis, LPS-primed THP-1 cells plus nigericin. It is filed as cell-based, human. The note with it: for inhibition of canonical inflammasome pyroptosis: THP-1, nigericin.
In assay [1] the test system is mouse iBMDMs. The experiment in a line: Non-canonical inflammasome pyroptosis, iBMDMs with LPS electroporation. Format: cell-based. As for the experimental part: Cell lines and treatments: THP-1 cells and HEK293T cells (obtained from ATCC) were grown in RPMI with 10% heat-inactivated fetal bovine serum, supplemented with 100 U/ml penicillin G, 100 μg/ml streptomycin sulfate, 6 mM HEPES, 1.6 mM L-glutamine, and 50 μM 2ME. C57BL/6 mouse iBMDM cells were kindly provided by J. Kagan (Boston Children's Hospital) and cultured in DMEM with the same supplements. Cells were verified to be free of mycoplasma contamination. Transient transfection of HEK293T cells was performed using Lipofectamine 2000 (Invitrogen) according to the manufacturer's instructions. iBMDM cells were transfected by nucleofection using the Amaxa Nucleofector kit (VPA-1009). […] To examine IκBα. phosphorylation and degradation as well as IL-1β induction, PMA-differentiated THP-1 cells were stimulated with LPS (1 μg/ml) for 0.5, 1 and 4 hrs, respectively. For noncanoical inflammasome activation, 1 million iBMDM cells were electroporated with 1 μg ultra LPS.
Cytotoxicity and cell viability assays: cell death and cell viability were determined by the lactate dehydrogenase release assay using the CytoTox 96 Non-Radioactive Cytotoxicity Assay kit (Promega) and by measuring ATP levels using the CellTiter-Glo Luminescent Cell Viability Assay (Promega), respectively, according to the manufacturer's instructions. Luminescence and absorbance were measured on a BioTek Synergy 2 plate reader.
In FIGS. 4, 6, and 8, PMA-differentiated LPS-primed human THP-1 were pre-treated with indicated concentrations of each compound for 1 h before adding nigericin or medium. The number of surviving cells was determined by CellTiter-Glo assay (FIGS. 4 and 6) and IL-1β in culture supernatants was assessed by ELISA (FIG. 8) 2 hrs later. In FIGS. 5, 7, and 9, mouse iBMDMs were pre-treated with each test compound for 1 hr before electroporation with PBS or LPS. The number of surviving cells was determined by CellTiter-Glo assay (FIGS. 5 and 7) and IL-1β in culture supernatants was assessed by ELISA (FIG. 9) 2.5 hrs later. In FIGS. 8 and 9, 40 μM concentration of test compounds were added.

The next assay has as its system HT-29 cells. The experiment in a line: Necroptosis induced by TNFα, SMAC mimetic and z-VAD-fmk. It is filed as cell-based. The note with it: SMAC mimetic.
Assay [2] concerns mouse iBMDMs. The experiment in a line: Processing of caspase-1, GSDMD and IL-1β in iBMDMs (immunoblot). Format: cell-based. The note with it: 1 hr time point. As for the experimental part:
FIG. 97 contains a bar graph showing results of an experiment where LPS-primed THP-1 cells, after medium removal, were incubated with probe FAM-YVAD-FMK in FLICA assay buffer for another 0.5 hr before fluorescence reading. iBMDMs were pretreated with disulfiram, Bay 11-7082, necrosulfonamide (NSA) or z-VAD-fmk for 1 hr before treated or not with Nigericin for 0.5 hr. Whole cell lysates and culture supernatants were immunoblotted with the indicated antibodies.
FIG. 98 contains a bar graph showing results of an experiment where LPS-primed THP-1 cells, after medium removal, were incubated with probe FAM-YVAD-FMK in FLICA assay buffer for another 0.5 hr before fluorescence reading. iBMDMs were pretreated with disulfiram, Bay 11-7082, necrosulfonamide (NSA) or z-VAD-fmk for 1 hr before treated or not with Nigericin for 1 hr. Whole cell lysates and culture supernatants were immunoblotted with the indicated antibodies.
Canonical inflammasome assembly activates caspase-1, which cleaves pro-IL-1β and GSDMD, and the latter is needed to release processed IL-1β and to induce pyroptosis. To assess which steps in NLRP3-mediated inflammation were inhibited post ASC speck formation, LPS-primed THP-1 cells were treated with vehicle, 30 μM z-VAD-fmk or disulfiram 1 hour before adding nigericin, and cleavage and activation of caspase-1, GSDMD, and pro-IL-1β were analysed by immunoblot of whole cell lysates 30 min later and 1 hr later. Secretion of processed IL-1β was also assessed by immunoblot of culture supernatants. […] The 1 hr time point is relevant as the cell death and IL-1β release measurements used cells stimulated with nigericin for 1 and 2 hrs, respectively.
Background: In western blotting, separated proteins are transferred to a membrane and probed.

[3] abbreviates: Table 2, leakage assay, read-out: IC50.

Entries after “also recorded” stand apart in the source; their conditions may differ. Counter-ions that a name gives are not always drawn. Like-named read-outs stand apart in the source and are kept apart here.

One may read the IC50 as the concentration that inhibits the measured activity by half.

Description for HT-29 cells: Inhibition was shown by cell survival, assessed by CellTiter-Glo ATP luminescence, and membrane permeabilization, assessed by uptake of the membrane-impermeable dye SYTOX Green.
Protocol for THP-1 cells: Cell viability assay. […] Primed THP-1 cells were pretreated with each test compound for 1 hr before addition of 20 μM nigericin or medium as control. The number of surviving cells was determined by CellTiter-Glo assay 1.5 hrs later. The final percent cell viability was calculated using the formula [(luminescencetest compound−luminescencencenegative control)/(luminescencencepositive control−luminescencenegative control)]×100, where wells with only LPS were used as positive controls and wells treated with LPS and nigericin were used as negative controls.
In FIGS. 4, 6, and 8, PMA-differentiated LPS-primed human THP-1 were pre-treated with indicated concentrations of each compound for 1 h before adding nigericin or medium. The number of surviving cells was determined by CellTiter-Glo assay (FIGS. 4 and 6) and IL-1β in culture supernatants was assessed by ELISA (FIG. 8) 2 hrs later. […] In FIGS. 8 and 9, 40 μM concentration of test compounds were added. […] Graphs show the mean±s.d. and data shown are representative of three independent experiments. **P<0.01.

As for `CC(C)N(C(=S)SSC(=S)N(C(C)C)C(C)C)C(C)C` [C-23A2, Tetraisopropylthiuram disulfide], at Human GSDMD (setting [3]), the IC50 was determined as 370 ± 10 nM.
As for `COc1ccc(-c2cc(=S)ss2)cc1` [C-22], in the assay on THP-1 cells, the “inhibition of canonical inflammasome pyroptosis” value is “Only C-23 blocked pyroptosis”. Moreover, in the assay on mouse iBMDMs [1], the “inhibition of non-canonical inflammasome pyroptosis” value is reported as “Only C-23 blocked pyroptosis”.
For `CN(C(=S)SSC(=S)N(C)c1ccncc1)c1ccncc1` [C-23A8, N,N′-Dimethyl-N,N′-di(4-pyridinyl)thiuram disulfide], the IC50 at Human GSDMD (setting [3]) was found to be 1250 ± 10 nM.
On the same count and under the same terms, for `CN1CCN(C(=S)SSC(=S)N2CCN(C)CC2)CC1` [C-23A4, 4-Methylpiperazine-1-carbothioic dithioperoxyanhydride] the value was 260 ± 10 nM; for `Cc1ccc(N(C)C(=S)SSC(=S)N(C)c2ccc(C)cc2)cc1` [C-23A6, N,N′-Dimethyl-N,N′-(4,4′-dimethyldiphenyl)thiuram disulfide], 350 ± 30 nM.
In the case of `CN(C)C(=S)SSC(=S)N(C)C` [C-23A1, tetramethylthiuram disulfide], on Human GSDMD (setting [3]), the IC50 worked out at 220 ± 10 nM.
Regarding `S=C(SSC(=S)N1CCCCC1)N1CCCCC1` [C-23A9, dicyclopentamethylenethiuram disulfide], at Human GSDMD (setting [3]), the IC50 is 260 ± 3 nM.
As for `CCCCN(CCCC)C(=S)SSC(=S)N(CCCC)CCCC` [C-23A3, tetrabutylthiuram disulfide], the IC50 at Human GSDMD (setting [3]) was found to be 460 ± 80 nM.
Turning to `CCN(CC)C(=S)S` [DTC, diethyldithiocarbamate], on Human GSDMD (with Cu2+), the “effect of copper gluconate (Cu2+) on inhibition of liposome leakage” value is “only weakly increased”. In addition, in the assay on THP-1 cells (with Cu2+), the “activity in cells in the presence of Cu2+” value was “almost as active as C-23; also recorded: almost as active as disulfiram” and the “effect of Cu2+ on protection of LPS-primed THP-1 cells from pyroptosis” value is given as “strongly promoted”.
With `COC(=O)/C=C/C(=O)OC` [DMF, dimethyl fumarate], at Human GSDMD (Cys-reactive comparison compounds), the “activity against GSDMD” value is recorded as “lack of activity”.
For `CN1C(=O)C(Cc2c[nH]c3ccccc23)NC1=S` (stereo not shown) [necrostatin-1], in the assay with HT-29 cells, the necroptosis result was “blocked”.
Turning to `COc1nccnc1NS(=O)(=O)c1ccc(NC(=O)/C=C/c2ccc([N+](=O)[O-])s2)cc1` [necrosulfonamide], the “times less active than disulfiram at inhibiting liposome leakage” value at Human GSDMD (GSDMD plus caspase-11) is given as “about 30 fold”. The IC50 on Human GSDMD (WT GSDMD, caspase-11-triggered, read-out: IC50 of liposome leakage) came to 9500 ± 430 nM. Also, the necroptosis entry with HT-29 cells is listed as “blocked”. Moreover, the “processing of caspase-1, GSDMD and IL-1β” value in the assay on mouse iBMDMs [2] is reported as “still inhibited processing”.
For the compound `S=C(SSC(=S)N1CCOCC1)N1CCOCC1` [C-23A7, di(4-morpholinyl)dithioperoxyanhydride], the IC50 on Human GSDMD (setting [3]) came out at 250 ± 10 nM.
Turning to `S=C(SSC(=S)N(c1ccccc1)c1ccccc1)N(c1ccccc1)c1ccccc1` [C-23A5, Tetraphenylthiuram disulfide], the IC50 at Human GSDMD (setting [3]) stood at 3740 ± 1060 nM.
As to `S=C(SSC(=S)N(Cc1ccccc1)Cc1ccccc1)N(Cc1ccccc1)Cc1ccccc1` [C-23A12, Tetrabenzylthiuram disulfide], on Human GSDMD (setting [3]), the IC50 was 2930 ± 1070 nM.
For `CN(C(=S)SSC(=S)N(C)c1ccccc1)c1ccccc1` [C-23A11, dimethyldiphenylthiuram disulfide], at Human GSDMD (setting [3]), the IC50 was found to be 370 ± 10 nM.
`S=C(SSC(=S)N1CCCC1)N1CCCC1` [C-23A10, pyrrolidine-1-carbothioic dithioperoxyanhydride]: on Human GSDMD (setting [3]), the IC50 was 260 ± 20 nM.
For `Cc1c(-c2cnccn2)ssc1=S` [C-24], in the assay with THP-1 cells, the “inhibition of canonical inflammasome pyroptosis” value is listed as “Only C-23 blocked pyroptosis”. In the assay with mouse iBMDMs [1], the “inhibition of non-canonical inflammasome pyroptosis” value is “Only C-23 blocked pyroptosis”.

Source of the values: patent publication US20210267996A1, “Compounds for inhibition of inflammation” (Children`s Medical Center Corporation, priority 2018, published 2021).
